Laboratory results taken from EP1859794A1, “Sustained release supplements” (priority 2006, dated 2007).

How the values were obtained:
[1] = Digestion simulation in stomacher at pH 3 for 60 minutes, total creatine and creatinine levels; assay type: physicochemical
Procedure: 1 capsule of creatine (500 mg) and 500 mg of powder was used along with 1 tablet of 500 mg of Sustained Released Creatine.
All 3 products were placed in a stomacher at pH 3 for 60 minutes to simulate digestion. Stomacher contained 1 liter of fluid with pH being adjusted with hydrochloric acid to simulate digestion.
After 60 minutes of digestion simulation in stomacher, all 3 products were tested for: • Total Creatine levels • Total Creatinine levels

[2] = Stamina and strength of athletes taking creatine (free weights and hammer strength machines); assay type: in vivo, human; details: two subjects
Procedure: Week 1-4: Two subjects were administered creatine monohydrate in powder form for four weeks. 2 grams were taken in the A.M. before breakfast.
No changes were made to diet and athletes were working out 4 times per week.
Stamina & Strength levels were monitored at the beginning of the study and every workout for 4 weeks.
A combination of free weights and hammer strength machines were used.
Week 5-8. Athletes discontinued creatine use. After 1 week the stomach bloat, bloating of the ankles and wrist, along with diarrhea and loose stools disappeared. About a 1% increase in strength was again noticed by the end of week 8, due to old fashioned hard work.
Week 9-12. Athletes were administered one 750 mg sustained released tablet in the a.m. and one 750 mg tablet in the afternoon. The breakdown of these tablets were 9 hours.

[3] = FTNIR / HPLC analysis of creatine and creatinine, as is or dry basis; assay type: physicochemical; details: before digestion simulation
Procedure: Tests on the coated Tablet prepared as described in Example 2 but with addition of 6% by tablet weight of PV/AP, creatine monohydrate powder and capsules of creatine monohydrate were carried out
These tests were done on an "AS IS or DRY BASIS.
Identification performed by FINIR, against in-house external library standards obtained from Sigma & produced by HPLC. / Quantification by FTNIR against external library standards obtained from Sigma & produced by HPLC
Bran & Luebbe InfraProver II FTNIR
Analysis performed by HPLC using Intersil ODS-2 5um (250x4.dmm) and 25 min. gradient elution with 0.1% phosphoric acid buffer in H2O and 0.1% phosphoric acid in acetonitrile. External reference standards obtained from Sigma-Aldrich.

[4] = physchem; assay type: physicochemical; details: simulated gastric solution, pH 4
Procedure: TABLE 2 Change in creatine with time at pH 4
The determination was based upon formation of creatinine under buffered incubation conditions. A solution of 1% creatine in simulated gastric solution (0.5% betain/pepsin in 1M HEPES buffer pH controlled with 5M HC1 and 5N NaOH). Creatinine determination performed by PDA spectrophotometer in kinetic mode, scanning at 15 sec intervals with an integration time of 0.5 sec. Detection in 1 cm path length flow call at 37°C with test analyte flowing at 1 ml/min. Reagents obtained from Sigma-Aldrich.

[5] = 2 grams in the A.M. before breakfast, week 1-4

With `CN(CC(=O)O)C(=N)N.O` [Creatine Powder, creatine monohydrate] the “pH of Stomacher after addition of product” value ([1]; 500 mg elemental creatine added to stomacher at pH 3, 1 liter of fluid) was 3.5, the “creatine converted to creatinine after 60 minutes (in words)” value ([1]; 500 mg, stomacher at pH 3, 60 minutes) was “all creatine being converted to creatinine” and the degraded at 1 h ([1]; acidified fluid, 500 mg elemental creatine, stomacher at pH 3, 60 minutes, read-out: Total conversion to Creatinine after 60 minutes of digestion) was 100%. The side effects [2, 5] was “Stomach bloating, bloating of the ankles and wrist, along with diarrhea and loose stools”, the stamina increase [2, 5] was “did not notice any stamina increase” and the increase in strength ([2]; 2 grams in the A.M. before breakfast, week 1-4, not attributed to creatine) was about 1%. For the same compound, the “over all sense of tiredness” value ([2]; 2 grams in the A.M., week two through week four) was “set in after week two and lasted through week four”, the Creatine [3] was “Creatine 100.1%” and the Creatinine [3] was “Creatinine <200ppm”.
In the case of `CN(CC(=O)O)C(=N)N` [creatine], the remaining at 15 s [4] is reported as 94%, the remaining at 0.5 min [4] is reported as 86% and the remaining at 45 s [4] is reported as 75%. It also gave a remaining at 1 min [4] of 66%, a remaining at 75 s [4] of 57% and a remaining at 0.025 h [4] of 49%. For the same compound, the remaining at 105 s [4] was 38%, the remaining at 2 min [4] was 31% and the remaining at 135 s [4] was 21%. The remaining at 2.5 min [4] was 16%, the remaining at 165 s [4] was 6% and the remaining at 0.05 h [4] was 0.5%.
